The data set in a line: Triboelectrification in a cyclone separator (specific charge, mass transport, adhesion). The conditions noted are these: for specific charge: untreated micronized drug, stainless steel cyclone, FIG. 1 / FIG. 3. It is filed as physicochemical. An excerpt: In the processing of micronized or microfine active substances for DPI, it is common to subject the powder to a sieving process in order to remove large agglomerates prior to mixing with the carrier particles used in the DPI formulation. […] The experimental method for electrostatic charge determinations that was applied is outlined in more detail below.
Electrostatic charge of powder samples was investigated using a cyclone apparatus linked to a Faraday well and force compensation load cell to measure charge and mass simultaneously. 1 g samples of powder were transported through the apparatus using dry compressed air (rh<10%) at 8 m s^−1 for triboelectrification against a stainless steel surface.
The charge Q (nC) and mass M (g) values were used to calculate the specific charge Q/M (nC g^−1) at the completion of each experimental run. The results are mean values with coefficient of variation values for 5 replicates. The mass of material entering the Faraday well was used to quantify the mass transport through the apparatus and this was used to assess the flow and adhesion characteristics of the powder. In addition, the amount of material adhered to the cyclone wall was estimated visually and rated on a scale from 0 (no adhesion) to 3 (extensive adhesion).
Approximately 10 g of drug powder samples were placed in a 60M (250 μm) sieve and agitated using a sieve shaker (Glen Creston, 47-300) with an oscillation amplitude regulator at setting 20 for 20 minutes. Sieved powder samples were stored in glass jars and then kept in a desiccator for a week prior to charge investigations in the cyclone.

The mark [1] stands for this setting: sieved samples, tiotropium treated with sorbitan derivative at 600 mg l^−1, or untreated, cyclone.

With `CC(Cc1ccc(O)cc1)NCC(O)c1cc(O)cc(O)c1` (stereo not drawn) [fenoterol, Fenoterol], the specific charge by setting is: (sieved) −92 nC g^−1; (unsieved) −40 nC g^−1.
On to `C[N+]1(C)[C@@H]2C[C@@H](OC(=O)C(O)(c3cccs3)c3cccs3)C[C@H]1[C@@H]1O[C@@H]12` [tiotropium, Tiotropium], for which, under setting [1], the “Mean charge (cv %)” value is on record as “+201 (3.2) nC g^−1” and the “Mean mass transfer (cv %)” value is listed as 2.5 (8.0) %. The specific charge result (sieved) is listed as “+201 nC g^−1”. For the setting “unsieved”, the specific charge result is “+52 nC g^−1”.

(Values after patent publication US20080057003A1, “Powder inhaler formulations” (priority 2001, published 2008).)
